From patent US20130078287A1 (Horizon Pharma USA, Inc., priority 2010, published 2013)
Marks after values point to notes of the source that are not given here.

Tested on: subjects who completed REDUCE-1 or REDUCE-2 without ulcer
Experiment: Follow-on safety study (28 weeks) after REDUCE-1 or REDUCE-2: adverse events
[1] = TEAE, follow-on study, Preferred Term
[2] = TEAE, follow-on study, System Organ Class

## CC(C)Cc1ccc(C(C)C(=O)O)cc1 (centres unmarked) [Ibuprofen, 2-(p-isobutylphenyl)propionic acid]
Follow-on Study
  AEs Leading to Discontinuation, Incidence (%): 2.1%
  AEs by Relatedness: Possibly Related, Incidence (%): 8.5%
  AEs by Relatedness: Probably Not Related, Incidence (%): 25.5%
  AEs by Severity: Life Threatening, Incidence (%): 0.0%
  AEs by Severity: Mild, Incidence (%): 10.6%
  AEs by Severity: Moderate, Incidence (%): 19.1%
  AEs by Severity: Severe, Incidence (%): 4.3%
  Abdominal Pain Upper, Incidence (%): 0.0 (0) %
  Abdominal Tenderness, Incidence %: 2.1 (0) %
  Any GI Event, Incidence (%): 4.3 (2)* %
  Constipation, Incidence (%): 0.0 (0) %
  Deaths, Incidence %: 0.0(0) %
  Diarrhea, Incidence (%): 2.1 (1) %
  Dyspepsia, Incidence (%): 0.0 (0) %
  General Disorders/Administrative Site Conditions, Incidence (%): 4.3(2) %
  Hepatobiliary Disorders, Incidence (%): 2.1(1) %
  Hypertension, Incidence (%): 0.0(0) %
  Infections/Infestations, Incidence (%): 14.9(7) %
  Injury, Poisoning, Procedural Complications, Incidence (%): 4.3(2) %
  Metabolism and Nutrition Disorders, Incidence %: 8.5(4)* %
  Musculoskeletal/connective Tissue Disorders, Incidence (%): 2.1(1) %
  Nausea, Incidence (%): 0.0 (0) %
  Nervous System Disorders, Incidence (%): 4.3(2) %
  Respiratory, Thoracic and Mediastinal Disorders, Incidence (%): 2.1(1) %
  SAEs leading to discontinuation, Incidence %: 0.0(0) %
  Subjects with at least one AE, Incidence (%): 34.0%
  Total SAEs, Incidence %: 4.3(2) %
  Withdrawals due to GI, Incidence (%): 0.0 (0) %
[1]
  Abdominal discomfort: 2.1 (1) % (n)
  Abdominal distension: 0.0 (0) % (n)
  Abdominal pain: 2.1 (1) % (n)
  Abdominal pain upper: 2.1 (1) % (n)
  Abdominal tenderness: 2.1 (1) % (n)
  Accidental overdose: 2.1 (1) % (n)
  Anaemia: 2.1 (1) % (n)
  Animal bite: 0.0 (0) % (n)
  Anxiety: 2.1 (1) % (n)
  Arthralgia: 4.3 (2) % (n)
  Asthma: 0.0 (0) % (n)
  Back pain: 0.0 (0) % (n)
  Blood creatinine increased: 0.0 (0) % (n)
  Blood pressure increased: 0.0 (0) % (n)
  Bronchitis: 2.1 (1) % (n)
  Bronchitis acute: 2.1 (1) % (n)
  Carpal tunnel syndrome: 0.0 (0) % (n)
  Cataract: 2.1 (1) % (n)
  Cholelithiasis: 2.1 (1) % (n)
  Conjunctivitis: 2.1 (1) % (n)
  Constipation: 4.3 (2) % (n)
  Contusion: 2.1 (1) % (n)
  Cough: 0.0 (0) % (n)
  Dermatitis: 2.1 (1) % (n)
  Dermatitis contact: 2.1 (1) % (n)
  Diabetes mellitus: 2.1 (1) % (n)
  Diabetes mellitus non-insulin-dependent: 2.1 (1) % (n)
  Diarrhoea: 8.5 (4) % (n)
  Dizziness: 2.1 (1) % (n)
  Dyspepsia: 2.1 (1) % (n)
  Ear infection: 2.1 (1) % (n)
  Eczema: 2.1 (1) % (n)
  Fall: 2.1 (1) % (n)
  Flatulence: 2.1 (1) % (n)
  Folliculitis: 2.1 (1) % (n)
  Foot fracture: 2.1 (1) % (n)
  Gait disturbance: 2.1 (1) % (n)
  Gastritis: 2.1 (1) % (n)
  Gastroenteritis: 0.0 (0) % (n)
  Gastroenteritis viral: 4.3 (2) % (n)
  Gastrooesophageal reflux disease: 2.1 (1) % (n)
  Headache: 0.0 (0) % (n)
  Hypercholesterolaemia: 2.1 (1) % (n)
  Hyperglycaemia: 2.1 (1) % (n)
  Hyperlipidaemia: 2.1 (1) % (n)
  Hyperosmolar state: 2.1 (1) % (n)
  Hypertension: 2.1 (1) % (n)
  Influenza: 2.1 (1) % (n)
  Intestinal spasm: 2.1 (1) % (n)
  Joint injury: 2.1 (1) % (n)
  Joint sprain: 2.1 (1) % (n)
  Joint swelling: 2.1 (1) % (n)
  Knee deformity: 2.1 (1) % (n)
  Laryngitis: 4.3 (2) % (n)
  Limb crushing injury: 2.1 (1) % (n)
  Lower respiratory tract infection: 4.3 (2) % (n)
  Migraine: 2.1 (1) % (n)
  Mood swings: 2.1 (1) % (n)
  Muscle spasms: 0.0 (0) % (n)
  Musculoskeletal pain: 4.3 (2) % (n)
  Nasopharyngitis: 2.1 (1) % (n)
  Nausea: 4.3 (2) % (n)
  Neck injury: 2.1 (1) % (n)
  Neck pain: 2.1 (1) % (n)
  Nerve compression: 2.1 (1) % (n)
  Non-cardiac chest pain: 2.1 (1) % (n)
  Oedema peripheral: 6.4 (3) % (n)
  Oesophageal stenosis: 2.1 (1) % (n)
  Otitis media: 0.0 (0) % (n)
  Pharyngolaryngeal pain: 2.1 (1) % (n)
  Plantar fasciitis: 2.1 (1) % (n)
  Pneumonia: 2.1 (1) % (n)
  Rib fracture: 4.3 (2) % (n)
  Road traffic accident: 2.1 (1) % (n)
  Sinusitis: 2.1 (1) % (n)
  Skin laceration: 2.1 (1) % (n)
  Stomach discomfort: 0.0 (0) % (n)
  Swelling face: 0.0 (0) % (n)
  Tendon injury: 0.0 (0) % (n)
  Tendonitis: 2.1 (1) % (n)
  Throat irritation: 2.1 (1) % (n)
  Tinnitus: 2.1 (1) % (n)
  Tooth abscess: 0.0 (0) % (n)
  Tooth infection: 2.1 (1) % (n)
  Toothache: 2.1 (1) % (n)
  Traumatic brain injury: 2.1 (1) % (n)
  Upper respiratory tract infection: 6.4 (3) % (n)
  Urinary tract infection: 0.0 (0) % (n)
  Urticaria: 2.1 (1) % (n)
  Viral upper respiratory tract infection: 2.1 (1) % (n)
  Vomiting: 4.3 (2) % (n)
  Wheezing: 0.0 (0) % (n)
[2]
  Ear and labyrinth disorders: 2.1 (1) % (n)
  Eye disorders: 4.3 (2) % (n)
  Gastrointestinal disorders: 23.4 (11) % (n)
  General disorders and administration site conditions: 6.4 (3) % (n)
  Hepatobiliary disorders: 2.1 (1) % (n)
  Immune system disorders: 0.0 (0) % (n)
  Infections and infestations: 36.2 (17) % (n)
  Injury, poisoning and procedural complications: 17.0 (8) % (n)
  Investigations: 0.0 (0) % (n)
  Metabolism and nutrition disorders: 8.5 (4) % (n)
  Neoplasms benign, malignant and unspecified (incl. cysts and polyps): 0.0 (0) % (n)
  Nervous system disorders: 6.4 (3) % (n)
  Psychiatric disorders: 4.3 (2) % (n)
  Renal and urinary disorders: 0.0 (0) % (n)
  Respiratory, thoracic and mediastinal disorders: 4.3 (2) % (n)
  Vascular disorders: 2.1 (1) % (n)
follow-on study, safety follow-on population, HZT-501 N = 132, Ibuprofen N = 47
  Total Subjects With at Least One TEAE: 68.1 (32) % (n)
